Entries after “also recorded” stand apart in the source; their conditions may differ.
Columns and labels:
[1] = solubility study in water and different solvents; format: physicochemical; conditions: thermodynamic from solid
Description: Then, they were covered with aluminum foil to exclude the light effect. Then, all tubes were put in a water bath at 25 ± 1 °C and 50 rpm for 48 h to reach equilibrium. After that, the samples were filtered using a 0.22 µm filter, and 1 mL was injected into the HPLC. Any sample with a high reading was diluted with the mobile phase.

[2] = test system: NCI-H2228 cell line; design: method as in PMID 25205428; conditions: oral administration, cited from earlier work
[3] = heat and accelerated stability study of solution in methanol; format: physicochemical
Description: Then, the rate constant of degradation at each temperature was calculated, and the shelf life of the solution at each temperature was calculated.

[4] = pH stability and pH-rate profile; format: physicochemical; conditions: methanolic citrate buffer, pH 3.5, 5 and 6.2
Description: A citrate buffer at three pH values was prepared as described above (pH of 3.5, 5, and 6.2). […] The aim was to calculate the rate constant at each pH level and plot it against the pH values.

[5] = photostability in solution and solid state; format: physicochemical
[6] = design: method as in PMID 25153538; conditions: non-fasting conditions; cited from earlier work
[7] = short-term (24 h) stability of solution in methanol; format: physicochemical; conditions: room temperature
[8] = pH-solubility profile; format: physicochemical; conditions: for solubility at 48 h: aqueous buffer
Description: All buffers were at a concentration of 0.05 M. The experiment was performed in the same way as the previous experiment on solubility.

[9] = sink conditions for dissolution test at pH 6.8 and 4.5; format: physicochemical; conditions: 37 °C, 24 h, dose 150 mg, media M1-M16
Description: The sink conditions are necessary to perform a successful dissolution test for oral solid dosage forms. […] Phosphate buffer (pH of 6.8) and acetate buffer (pH of 4.5) were prepared. Then, SLS, Tween 80, and ethanol were tried in different concentrations to achieve the target.

[10] = design: method as in PMID 23639470; conditions: 20 to 300 mg every 12 h; cited from earlier work
[11] = cited from earlier work
[12] = design: method as in PMID 21575866; conditions: compared with free plasma concentration; cited from earlier work
[13] = cited from earlier work; remark: listed apart in the source
[14] = known description, no reference given; cited from earlier work
[15] = cited from earlier work; remark: listed apart in the source

Question: For CCc1cc2c(cc1N1CCC(N3CCOCC3)CC1)C(C)(C)c1[nH]c3cc(C#N)ccc3c1C2=O.Cl [ALBHCL, 9-ethyl-6,6-dimethyl-8-[4-(morpholin-4-yl)piperidin-1-yl]-11-oxo-6,11-dihydro-5H-benzo[b]carbazole-3-carbonitrile-hydrochloride], which solubility at 48 h ([1]; PEG 400, organic solvent or mixture, PEG400, 25 °C, read-out: solubility) is on record?
Answer: 260 ± 6 µg/mL

Question: And the solubility at 48 h ([1]; organic solvent or mixture, DMSO, 25 °C, read-out: solubility)?
Answer: 4500 ± 6.1 µg/mL

Question: What about the solubility at 48 h ([1]; organic solvent or mixture, THF, 25 °C, read-out: solubility) of the same compound?
Answer: 280.9 ± 2.4 µg/mL

Question: What about the solubility at 48 h ([1]; organic solvent or mixture, acetonitrile, 25 °C, read-out: solubility) of the same compound?
Answer: 150.2 ± 1.1 µg/mL

Question: And the solubility at 48 h ([1]; organic solvent or mixture, chloroform, 25 °C, read-out: solubility)?
Answer: 620.3 ± 0.58 µg/mL

Question: And the solubility at 48 h ([1]; organic solvent or mixture, ethanol, 25 °C, read-out: solubility)?
Answer: 210 ± 4.5 µg/mL

Question: What about the solubility at 48 h ([1]; organic solvent or mixture, methanol, 25 °C, read-out: solubility) of the same compound?
Answer: 1991 ± 7.2 µg/mL

Question: What about the solubility at 48 h ([1]; propylene glycol, organic solvent or mixture, PG, 25 °C, read-out: solubility) of the same compound?
Answer: 211 ± 5.8 µg/mL

Question: And the solubility at 48 h ([1]; water, 25 °C, read-out: absolute solubility)?
Answer: 10.3 ± 1.2 µg/mL

Question: And the tumor regression ([2]; NCI-H2228 cell line)?
Answer: notable regression

Question: And the “ED50 of tumor suppression” value ([2]; tumor-bearing mice)?
Answer: 0.46 mg/kg

Question: And the “rate constant K1 (at 25 °C)” value ([3]; extrapolated to 25 °C)?
Answer: 0.00075 h⁻¹

Question: And the half-life ([3]; solution in methanol, 25 °C)?
Answer: 38.5 days

Question: What about the shelf-life of solution ([3]; solution in methanol, 25 °C, 0.105/K25) of the same compound?
Answer: 140 h

Question: What about the “rate constant of degradation (first-order) K50 °C” value ([3]; solution in methanol, 50 °C) of the same compound?
Answer: 0.01013 h⁻¹

Question: And the “rate constant of degradation (first-order) K55 °C” value ([3]; solution in methanol, 55 °C)?
Answer: 0.01382 h⁻¹

Question: And the “rate constant of degradation (first-order) K60 °C” value ([3]; solution in methanol, 60 °C)?
Answer: 0.02579 h⁻¹

Question: What about the “effect of pH on stability” value [4] of the same compound?
Answer: increasing the pH would increase stability

Question: And the “remained intact after exposure to light” value ([5]; solid powder, 36 h light)?
Answer: 82%

Question: And the “recovery from analysis of the powder” value ([5]; solid powder, light, up to 36 h)?
Answer: 99%

Question: And the half-life at 50 µg/mL ([5]; solution in methanol exposed to light, solution, light, room temperature, read-out: half-life of photodegradation (converted))?
Answer: 0.346 days

Question: What about the “intact ALBHCL remaining after exposure to light” value ([5]; solution in methanol, 36 h light) of the same compound?
Answer: 32%

Question: And the “rate constant of photodegradation (first-order) K” value ([5]; solution, light)?
Answer: 0.0829 h⁻¹

Question: And the “increase of AUC” value [6]?
Answer: 20%

Question: And the “increase of Cmax” value [6]?
Answer: 20%

Question: What about the “duration of stability of solutions” value [7] of the same compound?
Answer: 24 h

Question: What about the solubility at 48 h ([8]; pH 3.5, citrate buffer 0.05 M) of the same compound?
Answer: 50 µg/mL

Question: What about the solubility at 48 h ([8]; pH 5, citrate buffer 0.05 M) of the same compound?
Answer: 25.8 µg/mL

Question: And the “stability at pH 1.2” value ([8]; pH 1.2, chloride buffer, chromatogram after 24 h)?
Answer: showed degradation; also recorded: instability

Question: What about the “pH of maximum solubility” value ([8]; pH 1.2 to 10) of the same compound?
Answer: 3.5

Question: What about the “dissolution media that fulfilled sink conditions” value [9] of the same compound?
Answer: phosphate buffer 6.8 + 2% SLS (M3), phosphate buffer 6.8 + 5% Tween 80 (M6), acetate buffer 4.5 + 2% SLS (M11), and acetate buffer 4.5 + 5% Tween 80 (M14)

Question: What about the “time of peak plasma levels after administration” value [10] of the same compound?
Answer: 2.00 to 4.61 h

Question: What about the “adverse drug reaction: drug-induced liver injury” value [11] of the same compound?
Answer: 1.3%

Question: What about the “adverse drug reaction: interstitial lung disease” value [11] of the same compound?
Answer: 1.3%

Question: And the “adverse drug reaction: photosensitivity reaction” value [11]?
Answer: 5.3%

Question: What about the “adverse drug reaction: stomatitis” value [11] of the same compound?
Answer: 3.3%

Question: What about the “adverse drug reaction: weight gain” value [11] of the same compound?
Answer: 9.9%

Question: And the nephrotoxicity [11]?
Answer: reported in rare cases

Question: What about the bradycardia ([11]; increased exposure, ref Pruis et al. 17) of the same compound?
Answer: linked to bradycardia

Question: And the “measured concentrations in the blood-cerebrospinal fluid (CSF) barrier” value [12]?
Answer: approximately equal to the free concentration of ALBHCl in plasma

Question: What about the lipophilicity [13] of the same compound?
Answer: highly lipophilic

Question: And the logP ([13]; no method or reference given)?
Answer: 5.5

Question: And the “solubility in water, descriptive” value [14]?
Answer: practically insoluble

Question: What about the “route of most elimination” value [15] of the same compound?
Answer: feces
